Test results: patent publication US10793520B2, “Sulfonylaminobenzamide compound and pest control agent” (Nippon Soda Co., Ltd., priority 2016, dated 2020)

Legend:
Spodoptera litura = experiment: Efficacy test against Spodoptera litura (cabbage leaf dip); format: in vivo; conditions: foliar, 144 h, cabbage leaves soaked 30 seconds, second-instar larvae, 6 days after larvae release, read-out: mortality rate against Spodoptera litura
Description: Five parts of the compound of the present invention, 93.6 parts of dimethylformamide and 1.4 parts of a polyoxyethylene alkyl aryl ether were mixed together and dissolved to obtain an emulsion (1) containing 5% of the active constituent.
The mortality rate was calculated using the following equation. Mortality rate (%)=(number of dead pests/number of test pests)×100
The emulsion (1) was diluted with water to achieve a concentration of the compound of the present invention of 125 ppm. Cabbage leaves were soaked in the diluted liquid for 30 seconds. These cabbage leaves were then placed in a Petri dish, and five second-instar larvae of Spodoptera litura were released into the dish. The Petri dish was placed in a temperature-controlled room at a temperature of 25° C. and a humidity of 60%. Mortality was investigated 6 days after larvae release, and the mortality rate was calculated. The test was repeated.

Meloidogyne incognita = experiment: Efficacy test against Meloidogyne incognita (in vitro test); conditions: 48 h, final concentration 50 ppm, second-instar larvae (L2), 2 days at 15° C., read-out: nematode mortality (still) rate against Meloidogyne incognita
Description: (§1) Two hundred μL of a suspension containing about 50 second-instar larvae (L2) of Meloidogyne incognita was dispensed into each well of a 96-well microplate, and 0.2 μL of a 10,000 ppm dimethylsulfoxide solution of the compound of the present invention was injected into each well to achieve a final concentration of 50 ppm. Mortality was investigated after 2 days treatment at 15° C., and the nematode mortality rate was calculated. […] The test was repeated.

Caenorhabditis elegans = experiment: Efficacy test against Caenorhabditis elegans (in vitro test); conditions: 48 h, final concentration 50 ppm, mixed instars, 2 days at 25° C., read-out: nematode mortality rate against Caenorhabditis elegans
Description: as §1, with “mixed instars” for “second-instar larvae (L2)”, “Caenorhabditis elegans” for “Meloidogyne incognita”, “25°” for “15°”

Aedes aegypti = experiment: Contact/ingestion efficacy test against Aedes aegypti larvae; format: in vivo; conditions: final concentration 12.5 μM, first-instar larvae, after 48 hours, 28° C., 80% RH, read-out: mortality rate against Aedes aegypti
Description: A DMSO solution of the compound of the present invention was diluted with water to obtain a 125 μM dilute solution. Ten first-instar larvae of Aedes aegypti were placed in each well of a 96-well microtiter plate, the above dilute liquid was added in a ratio of 1/10, and a test was conducted at a final concentration of 12.5 μM. The samples were incubated in a temperature-controlled room (28° C., 80% RH), and after 48 hours of treatment with the compound, the mortality of the larvae was investigated. The test was repeated.

Mythimna separata = experiment: Efficacy test against Mythimna separata (treated artificial feed); conditions: in vivo
In short: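 Second-instar larvae (2 per area) were given artificial feed mixed with a 5% active-constituent emulsion in DMF with polyoxyethylene alkyl aryl ether. They were kept sealed at 25 °C. Mortality (dead/tested ×100) and feed consumption were scored on day 5, with a compound-free emulsion as control.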

Ascaridia galli = experiment: Efficacy test against Ascaridia galli (in vitro, L3 larvae, MEC); conditions: activity against at least one type of target parasitic worm: Ascaridia galli L3 or Oesophagostomum dentatum L3/L4
Description: Using the gut-welling larval stages of two parasitic worms: namely, the third stage larvae (L3) of Ascaridia galli, and the third and fourth stage larvae (L3 and L4 respectively) of Oesophagostomum dentatum, the bioactivity of compounds of the present invention were investigated in vitro. When conducting these tests, DMSO solutions of the compounds of the present invention were prepared at various concentrations and incubated in the wells of a 96-well microtiter plate. Subsequently, 20 parasitic worm larvae were inoculated into each well. The bioactivity was determined by inspection under a microscope. The inspection under a microscope included evaluations of the mortality rate, injury, motility, development progression, and neutral red uptake by the larvae compared with a DMSO control.

| SMILES | mortality at 125 ppm (Spodoptera litura) | mortality at 50 ppm (Meloidogyne incognita) | mortality at 50 ppm (Caenorhabditis elegans) | mortality at 12.5 µM (Aedes aegypti) | mortality rate against Mythimna separata, or amount of feed consumed relative to control (Mythimna separata) | MEC (minimum effective concentration) (Ascaridia galli) |
| --- | --- | --- | --- | --- | --- | --- |
| O=C(Nc1ccc(C(F)(F)F)cc1)c1ccc(C(F)(F)F)cc1NS(=O)(=O)C(F)(F)F [a-9, 4-(trifluoromethyl)-N-[4-(trifluoromethyl)phenyl]-2-(trifluoromethylsulfonylamino)benzamide] | ≥ 80% | ≥ 80% | ≥ 80% | ≥ 80% |  |  |
| O=C(Nc1ccc(F)c(C(F)(F)F)c1)c1ccc(OC(F)(F)F)cc1NS(=O)(=O)C(F)(F)F [a-25] |  |  |  |  | 100%, or the amount of feed consumed was 10% or less | ≤ 25 µM |
